From patent US20050215517A1, “Use of an anti-endotoxin drug in the prevention and treatment of disease” (priority 1999, published 2005)

Assays:
[1] = Plasma pharmacokinetics of E5564 after 72 hours intravenous infusion; type: in vivo, beagle dogs; conditions: 72 h i.v. infusion; for T½: after end of infusion
Protocol: FIG. 4 is a graph showing the plasma levels of E5564 during and after 72 hours of intravenous infusion. […] At the indicated times, blood was drawn and analyzed for E5564 concentration by extraction and analysis by HPLC. Each value represents the mean±S.E.M. of three animals. No drug was detectable in samples drawn prior to dosing.
(§1) This long-term presence of unmodified E5564 in blood initially led us to believe that active drug was likely present for very long periods of time after cessation of drug administration.

[2] = Relative toxicity of E5564 versus B531 (animal studies); conditions: E5564 compared with B531
LPS endotoxin = assay: Pharmacodynamic analysis of E5564 in vivo: LPS challenge in dogs, plasma TNF-α by bioassay; design: species or system beagle dogs; conditions: for TNF-α at 1 hour / TNF-α at 2 hours: plasma; for TNF-α at 1 hour: 1 h after LPS 300 ng/kg i.v.; for TNF-α at 2 hours: 2 h after LPS 300 ng/kg i.v.
Protocol: FIG. 1 is a graph showing the anti-endotoxin activity of E5564 after a single bolus injection. LPS endotoxin (300 ng/kg) was injected intravenously into untreated dogs (∘) or simultaneously with 0.1 mg/kg E5564 (Δ) one hour after E5564 administration (□) or three hours after E5564 administration (●). Blood was drawn and analyzed for TNF-α concentration by bioassay, as is described in the Materials and Methods section, below. Each value represents the mean±S.E.M. of four animals.
In general, the candidate antagonist is administered to a test species of animal, and an appropriate dose of endotoxin (lipopolysaccharide (LPS)) is administered to test the ability of the candidate antagonist to block the effects of endotoxin. Some of the experiments described below use an in vivo challenge of LPS given intravenously both during and after intravenous infusion of E5564. Activity of an antagonist can also be assayed ex vivo by removing blood samples from animals treated with the candidate antagonist and testing that blood to determine if the drug is active and/or present in sufficient quantities to inhibit cellular activation by LPS. In both assays, activity of the antagonist is quantitated by analysis of the cytokines induced by LPS administration. In addition, other physiological symptoms of endotoxin poisoning can be used as readouts of activity. Studies described herein use TNF-α and/or IL-6 as readouts of cellular activation, but a variety of other cytokines and cellular mediators can also be used for this purpose.
As is shown in FIG. 1 and Table 1, delivery of 300 ng/kg of LPS into beagle dogs (“control” in FIG. 1) elicits a strong, reproducible response, as measured by levels of plasma TNF-α. […] This short activity lifetime (i.e., pharmacodynamic half-life) is an unexpected result, as the pharmacokinetic half-life of E5564 is extremely long in comparison (see below). Thus, while the unmodified (unmetabolized) drug appears to remain in circulation for a relatively long period of time, it loses activity. Because of this unexpected discovery, we have chosen to administer E5564 by infusion.
E5564 was synthesized by Eisai Research Institute of Boston, Andover, Mass., U.S.A. E5564 drug product was manufactured at the Eisai Preclinical Laboratory (Tsukuba, Japan) by dissolving 35.4 mg of drug substance in 52.1 ml 0.01 N NaOH, stirring for one hour at room temperature, and diluting into phosphate-buffered lactose. After adjusting the pH to 7.3 and diluting to a final concentration of 0.1 mg/ml E5564, the solution was filter-sterilized and lyophilized.
Escherichia coli LPS (Serotype 0111:B4; phenol extracted, Cat. # L-2630) was purchased from Sigma Chemical Co. Ltd., St. Louis, Mo., U.S.A. Lyophylized E5564 was solubilized in 5 ml of sterile water (Otsuka Pharm. Co. Ltd., Tokyo, Japan). LPS was weighed to an accuracy of 1/10 mg and solubilized in 5% glucose (Otsuka Pharm. Co. Ltd., Tokyo, Japan). The LPS solution was sonicated with a bath-type sonicator for 15 minutes after which aliquots were immediately prepared and stored at −20° C. Prior to use, the solution was sonicated for one or two minutes, and then dilutions were prepared in 5% glucose.
Nine month-old beagles were obtained from Kawashima-shoji Co. Ltd., Gifu, Japan) and housed in stainless steel wire cages (W 800 mm×D 680 mm×H 680 mm; one dog per cage) in a room with a constant temperature of 20-24° C., humidity of 45-65%, and 12 hour light-dark cycle. The animals were provided with pellet food (DS, Oriental Yeast Co., Tokyo, Japan) and water ad libitum. LPS endotoxin (300 ng/0.1 ml/kg) was injected into the vein of the right foreleg at a rate of 1-2 ml/minute, and E5564 was injected into the vein of the left foreleg at a rate of 10-20 ml/minute.
Immediately before or 1, 2, or 4 hours after intravenous injection of LPS and E5564, 1.5 ml of blood was drawn from the left cephalic vein. […]

[3] = Plasma pharmacokinetics of E5564 after single bolus intravenous injection; type: in vivo, dogs; conditions: single bolus i.v.
Protocol: FIG. 3 is a graph showing the plasma levels of E5564 after a single bolus injection. After bolus administration of 0.1 mg/kg E5564 (∘), 0.3 mg/kg E5564 (□), and 1 mg/kg E5564 (▪), blood was drawn and analyzed for E5564 concentration by extraction and analysis by HPLC. Each value represents the mean±S.E.M. of three animals. No drug was detectable in samples drawn prior to dosing.
as §1

[4] = 0.1 mg/kg E5564 bolus one hour before LPS
[5] = 0.1 mg/kg E5564 bolus three hours before LPS

CCCCCC/C=C\CCCCCCCCCC(=O)N[C@H]1[C@H](OC[C@H]2O[C@H](OP(=O)(O)O)[C@H](NC(=O)CC(=O)CCCCCCCCCCC)[C@@H](OCCCCCCCCCC)[C@@H]2O)O[C@H](COC)[C@@H](OP(=O)(O)O)[C@@H]1OCC[C@@H](CCCCCCC)OC [E5564, α-D-Glucopyranose, 3-O-decyl-2-deoxy-6-O-[2-deoxy-3-O-[(3R)-3-methoxydecyl)-6-O-methyl-2-[[(11Z)-1-oxo-11-octadecenyl)amino]-4-O-phosphono-β-D-glucopyranosyl]-2-[(1,3-dioxotetradecyl)amino]-,1-(dihydrogen phosphate)]
AUC0-144 hours ([1]; dose 0.1 mg/kg, female): 790 ± 51 µg·h/mL
C72 hours ([1]; dose 0.1 mg/kg, female): 10350 ± 930 ng/mL
AUC0-144 hours ([1]; dose 0.1 mg/kg, male): 1069 ± 139 µg·h/mL
C72 hours ([1]; dose 0.1 mg/kg, male): 13070 ± 1220 ng/mL
AUC0-144 hours ([1]; dose 0.3 mg/kg, female): 2616 ± 737 µg·h/mL
C72 hours ([1]; dose 0.3 mg/kg, female): 32400 ± 5720 ng/mL
AUC0-144 hours ([1]; dose 0.3 mg/kg, male): 3309 ± 485 µg·h/mL
C72 hours ([1]; dose 0.3 mg/kg, male): 41290 ± 7180 ng/mL
AUC0-144 hours ([1]; dose 1 mg/kg, female): 29642 ± 1514 µg·h/mL
C72 hours ([1]; dose 1 mg/kg, female): 393900 ± 14200 ng/mL
AUC0-144 hours ([1]; dose 1 mg/kg, male): 27114 ± 5737 µg·h/mL
C72 hours ([1]; dose 1 mg/kg, male): 366000 ± 69300 ng/mL
T½ ([1]; dose 0.1 mg/kg, female): 40.9 ± 9.5 h
T½ ([1]; dose 0.1 mg/kg, male): 38.4 ± 4.5 h
T½ ([1]; dose 0.3 mg/kg, female): 38.0 ± 11.6 h
T½ ([1]; dose 0.3 mg/kg, male): 39.9 ± 11.2 h
T½ ([1]; dose 1 mg/kg, female): 32.0 ± 2.8 h
T½ ([1]; dose 1 mg/kg, male): 35.1 ± 8.7 h
Toxicity relative to B531 [2]: about twenty-fold less toxic than B531
Blocking of LPS challenge (plasma TNF-α) (LPS endotoxin; 0.1 mg/kg E5564 given at the same time as LPS 300 ng/kg): completely effective
Response to LPS (% of control) (LPS endotoxin; E5564 one hour before LPS): 0 % of control
Sum of TNF-α (AUC) (LPS endotoxin; E5564 one hour before LPS): 0 units/ml
Inhibition of LPS response (LPS endotoxin; E5564 simultaneously with LPS): 100
Response to LPS (% of control) (LPS endotoxin; E5564 simultaneously with LPS): 0 % of control
Response to LPS (% of control) (LPS endotoxin; E5564 three hours before LPS): 52 % of control
Activity of the endotoxin antagonist remaining (LPS endotoxin; LPS administered three hours after 0.1 mg/kg E5564): about 48 % of its original activity
TNF-α at 1 hour (LPS endotoxin; [4]): 0 units/ml
TNF-α at 1 hour (LPS endotoxin; 0.1 mg/kg E5564 bolus simultaneously with LPS, four dogs): 0 units/ml
TNF-α at 1 hour (LPS endotoxin; [5]): 1353 ± 340 units/ml
TNF-α at 2 hours (LPS endotoxin; [4]): 0 units/ml
TNF-α at 2 hours (LPS endotoxin; 0.1 mg/kg E5564 bolus simultaneously with LPS): 0 units/ml
TNF-α at 2 hours (LPS endotoxin; [5]): 190 ± 113 units/ml
AUC ([3]; 0.1 mg/kg dose): 71.8255 ± 1.981 µg·h/mL
T½ ([3]; 0.1 mg/kg dose): 41.7 ± 2.7 h
AUC ([3]; 0.3 mg/kg): 270.8972 µg·h/mL
T½ ([3]; 0.3 mg/kg): 50.4 ± 2.2 h
AUC ([3]; 1 mg/kg): 743.5446 µg·h/mL
T½ ([3]; 1 mg/kg): 46.4 ± 2.7 h
